Like-named read-outs stand apart in the source and are kept apart here.
Legend:
HIF1α = type: cell-based, human; conditions: HepG2 cells, 250 μM manganese; evident at 4 hours, baseline by 24 h
Method: (§1) manganese and drug treatments in cell culture. Cells were treated with indicated levels of manganese as manganeseCl2.4H2O (Fisher). Vehicle for manganese treatment was water. Prolyl hydroxylase inhibitors roxadustat (Caymen), vadadustat, and molidustat (both APE-Bio); the HIFα inhibitor LW6 (Selleckchem); the proteasomal inhibitor MG132 (Sigma); and the transcription inhibitor actinomycin D (Sigma) were dissolved in DMSO. […] Vehicle treatment for all drugs was DMSO.
(§2) Immunoblots. HepG2 cells were cultured in 35 mm dishes, treated with or without manganese, MG132 and/or prolyl hydroxylase inhibitors, and scrapped using 200 μl of RIPA buffer (50 mM Tris-HCl, pH7.4; 150 mM NaCl; 1Mm EDTA; 1% Triton; 0.25% sodium deoxycholate; protease inhibitors cocktail (Thermo A32953)). Whole-cell lysates were prepared by adding loading buffer (50 mM Tris-HCl, pH 7.4; 2% sodium dodecyl sulfate; 10% glycerol, 0.1 M dithiothreitol; 0.01% (weight/volume) bromophenol blue) and boiling the samples for 5 min. Equal volumes of samples were loaded per lane. Further processing was as described by us previously (47). Images were quantified using ImageQuant TL software (GE).
(§3) Antibodies and chemicals. The inventors used the following commercial primary antibodies in this study: rabbit polyclonal anti-HIF1α (Abcam, Ab2185), rabbit polyclonal anti-HIF2α (Novus, NB100-122), rabbit monoclonal anti-HIF1α proline 564 (Cell signaling, 3434S), and mouse monoclonal anti-tubulin (Sigma, T5168). […] Sources of chemicals not provided elsewhere were Thermo Fisher Scientific or Sigma-Aldrich.

HIF2α = type: cell-based, human; conditions: HepG2 cells, 250 μM manganese; evident at 4 hours, baseline by 24 h
Method: as §1, §2, §3

[1] = test system: prolyl hydroxylated HIF1α; type: cell-based, human; conditions: HepG2 cells, 10 μM MG132 for 1 h then 250 μM manganese for 4 h
Method: as §1, §2, §3

SLC30A10 promoter = type: cell-based, human
Text: A luciferase reporter plasmid containing the proximal promoter of human SLC30A10 has been previously described and was a gift of Dr. Ruth Valentine (100). The promoter fragment corresponding to bases −679 to +211 relative to the start of transcription was sub-cloned into the Xho1 and SpeI sites of pRRLSIN.cPPTLuciferase.WPRE vector (Addgene, #69251), which is a luciferase vector for lentivirus infections. Deletion mutants were generated using the loop-out modification of the QuikChange protocol.
Lentiviral infections. Stable cells were generated by lentivirus infection essentially as described by us previously (49, 98). Briefly, lentivirus was produced in HEK293T cells by co-transfecting transfer plasmids described above with plasmids coding for a third generation packing system that is routinely used (pRSV-Rev, pRRE, and pCMV-VSVG) (49, 98). Viral supernatants were collected 40-48 h post-transfection. HepG2 cells for infection were plated in a 60 mm dish 24 h before infection so that cells reached a confluence of 30% on the day of infection. Collected viral supernatants were filtered through a 0.45-μm polyvinylidene difluoride filter, and cells were incubated with a 1:2 dilution of viral supernatant containing 5 μg/mL Polybrene (Santa Cruz). […]

SLC30A10 = type: in vivo, mice; conditions: oral manganese ~15 mg/kg daily from birth until 8 weeks
Method: A well-characterized drinking water-based manganese exposure regimen was used to model human environmental manganese exposure by providing mice with ˜50 mg manganeseCl2.4H2O/kg body weight daily (˜15 mg absolute manganese/kg per day) from birth until 8 weeks of age. This, and related similar, dosing regimens: 1) approximate the increase in manganese exposure in humans consuming well water contaminated with 1.5 mg manganese/L, which is the median well water concentration associated with neurological deficits in children; 2) increase brain manganese levels by ˜2-3 fold, similar to human patients; 3) produce measurable neurobehavioral deficits without overt toxicity; and 4) model exposure to manganese in developmentally-sensitive early-life and adolescent periods (11). Pre-weaning manganese was delivered by pipette directly into the mouth, and post-weaning manganese was delivered in drinking water using procedures described in detail in ref. (11). In brief, pre-weaning dosing was adjusted to each animal's body weight. For this, a stock solution of 69.2 mg absolute manganese/ml prepared in milliQ water was diluted in milliQ water containing 2.5% (wt/vol) of the natural sweetener Stevia (to facilitate intake by pups), and the required manganese amount (0.2 μl manganese stock/g body weight) was delivered in a dose of ˜5-10 μl/animal. For post-weaning exposure, a 27.7 mg absolute manganese/ml stock solution was prepared in water and diluted to 0.069 mg absolute manganese/ml in drinking water, which provided mice with ˜15 mg absolute manganese/kg per day based on a daily water intake of ˜2-5 ml/mouse depending on age.
To assay for the protective effect of roxadustat, animals were exposed to roxadustat or vehicle with or without manganese in drinking water from ˜4 weeks of age. Treatment lasted for 4 weeks from initiation. Roxadustat (Selleckchem) was prepared as a 50 mg/ml stock solution in DMSO, then diluted to 1 mg/ml in sterile phosphate buffered saline (PBS), and delivered by daily i.p. injection at 10 mg/kg. Vehicle was 2% DMSO in PBS. For this experiment, drinking water manganese levels were adjusted to 0.138 mg absolute manganese/ml so that animals received ˜30 mg absolute manganese/kg daily. A higher level of manganese was used because exposure was initiated after weaning, which was necessary because daily i.p. injections for roxadustat delivery were not possible in the pre-weaning period.
Animals were euthanized using carbon dioxide and tissue dissected for qRT-PCR or ICPMS analyses as described by us previously (50).
Quantitative RT-PCR assays. RNA extraction from HepG2 cells and mouse tissue, reverse transcription to cDNA, and qRT-PCR analyses were performed as described by us previously (47, 50). For analyses of mouse brain samples, a part of the midbrain, including the basal ganglia, was used. Transcript levels were quantified using the ΔΔCT method with 18S (in mice) or TBP (in HepG2 cells) as the internal control, also as described by us previously (47, 50).

Q: With `O.O.O.O.[Cl][Mn][Cl]` [manganese, manganeseCl2.4H2O] as the molecule, how does the “HIF1α protein levels after manganese” value (HIF1α) read?
A: Its value is “increased”.

Q: What about the “HIF2α protein levels after manganese” value (HIF2α) of the same molecule?
A: The value was “increased”.

Q: What about the “Signals for prolyl hydroxylated HIF1α in manganese-treated condition” value [1] of the same molecule?
A: The value was “substantially lower”.

Q: What about the “Luciferase activity after manganese” value (SLC30A10 promoter) of the same molecule?
A: Its value is “increased”.

Q: And the “SLC30A10 levels in intestines” value (SLC30A10; 129S4/SvJaeJ mice)?
A: The value was “not”.

Q: And the “SLC30A10 levels in liver” value (SLC30A10; 129S4/SvJaeJ mice)?
A: Its value is “increased”.

Q: What about the “SLC30A10 levels in intestines” value (SLC30A10; C57BL/6J mice) of the same molecule?
A: The value was “increase”.

Q: What about the “SLC30A10 levels in liver” value (SLC30A10; C57BL/6J mice) of the same molecule?
A: Its value is “not”.

Q: What about the “Expression of SLC30A10 in the brain” value (SLC30A10; either strain (129S4/SvJaeJ, C57BL/6J)) of the same molecule?
A: The value was “did not impact”.

Reference: patent US20230101768A1, “METHOD TO TREAT MANGANESE TOXICITY AND MANGANESE-INDUCED PA[…] HUMANS” (priority 2021, published 2023)
